Laboratory results: US11053204B2, “Pyrimidinyloxy benzene derivatives as herbicides” (FMC Corporation, priority 2015, dated 2021)

Experiments:
Format in all cases: in vivo
kochia (Kochia scoparia) = assay: Test C preemergence, plant response rating
[1] = tested on: surinam grass (Brachiaria decumbens); assay: Test C preemergence, plant response rating
[2] = tested on: oat, wild (wild oat Avena fatua); assay: Test C preemergence, plant response rating
[3] = tested on: galium (catchweed bedstraw, Galium aparine); assay: Test C preemergence, plant response rating
[4] = tested on: pigweed (Amaranthus retroflexus); assay: Test C preemergence, plant response rating; settings: Preemergence
[5] = tested on: wheat (winter wheat, Triticum aestivum); assay: Test C postemergence, plant response rating; settings: for Wheat plant response rating: scale 0 to 100 (0 no effect, 100 complete control)
Method in brief: (§1)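 After sowing in loam–sand blend or silt loam, pots were sprayed preemergence; separately grown 1- to 4-leaf plants were sprayed postemergence. Following 13 to 15 d under greenhouse conditions, injury was rated visually on a 0 to 100 scale.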

soybean (Glycine max) = assay: Test C postemergence, plant response rating; settings: for Soybean plant response rating: scale 0 to 100 (0 no effect, 100 complete control)
Method in brief: as §1

[6] = tested on: waterhemp (common waterhemp, Amaranthus rudis); assay: Test C postemergence, plant response rating; settings: for Waterhemp plant response rating: scale 0 to 100 (0 no effect, 100 complete control)
Method in brief: as §1

corn (Zea mays) = assay: Test C postemergence, plant response rating; settings: for Corn plant response rating: scale 0 to 100 (0 no effect, 100 complete control)
Method in brief: as §1

[7] = tested on: foxtail, giant (giant foxtail, Setaria faberii); assay: Test C postemergence, plant response rating; settings: for Foxtail, Giant plant response rating: scale 0 to 100 (0 no effect, 100 complete control)
Method in brief: as §1

[8] = tested on: crabgrass, large (large crabgrass, Digitaria sanguinalis); assay: Test C postemergence, plant response rating; settings: for Crabgrass, Large plant response rating: scale 0 to 100 (0 no effect, 100 complete control)
Method in brief: as §1

[9] = tested on: blackgrass (Alopecurus myosuroides); assay: Test C postemergence, plant response rating; settings: for Plant response rating, Blackgrass: scale 0 to 100; for Blackgrass plant response rating: scale 0 to 100 (0 no effect, 100 complete control)
Method in brief: as §1

[10] = tested on: galium (catchweed bedstraw, Galium aparine); assay: Test C postemergence, plant response rating; settings: for Galium plant response rating: scale 0 to 100 (0 no effect, 100 complete control)
Method in brief: as §1

[11] = tested on: oilseed rape (Brassica napus); assay: Test C postemergence, plant response rating; settings: for Oilseed Rape plant response rating: scale 0 to 100 (0 no effect, 100 complete control)
Method in brief: as §1

[12] = tested on: velvetleaf (Abutilon theophrasti); assay: Test C postemergence, plant response rating; settings: for Velvetleaf plant response rating: scale 0 to 100 (0 no effect, 100 complete control)
Method in brief: as §1

[13] = tested on: oat, wild (wild oat Avena fatua); assay: Test C postemergence, plant response rating; settings: for Oat, Wild plant response rating: scale 0 to 100 (0 no effect, 100 complete control)
Method in brief: as §1

[14] = tested on: lambsquarters (Chenopodium album); assay: Test C postemergence, plant response rating; settings: for Lambsquarters plant response rating: scale 0 to 100 (0 no effect, 100 complete control)
Method in brief: as §1

[15] = tested on: ryegrass, Italian (Italian ryegrass, Lolium multiflorum); assay: Test C postemergence, plant response rating; settings: for Ryegrass, Italian plant response rating: scale 0 to 100 (0 no effect, 100 complete control)
Method in brief: as §1

[16] = tested on: ragweed (common ragweed, Ambrosia elatior); assay: Test C postemergence, plant response rating; settings: for Ragweed plant response rating: scale 0 to 100 (0 no effect, 100 complete control)
Method in brief: as §1

[17] = tested on: barnyardgrass (Echinochloa crus-galli); assay: Test C postemergence, plant response rating; settings: for Plant response rating, Barnyardgrass: scale 0 to 100; for Barnyardgrass plant response rating: scale 0 to 100 (0 no effect, 100 complete control)
Method in brief: as §1

[18] = tested on: nutsedge, yellow (yellow nutsedge, Cyperus esculentus); assay: Test C postemergence, plant response rating; settings: for Nutsedge, Yellow plant response rating: scale 0 to 100 (0 no effect, 100 complete control)
Method in brief: as §1

C=C(Br)COC(=O)c1c(Br)cccc1Oc1ncc(Cl)cn1 [Compound 61]
Plant response rating, Kochia (kochia (Kochia scoparia); 16 g ai/ha, scale 0 to 100): 0
Plant response rating, Kochia (kochia (Kochia scoparia); 31 g ai/ha, scale 0 to 100): 5
Plant response rating, Kochia (kochia (Kochia scoparia); 62 g ai/ha, scale 0 to 100): 5
Plant response rating, Kochia (kochia (Kochia scoparia); 125 g ai/ha, scale of 0 to 100): 30
Plant response rating, Surinam Grass ([1]; 16 g ai/ha, scale 0 to 100): 0
Plant response rating, Surinam Grass ([1]; 31 g ai/ha, scale 0 to 100): 10
Plant response rating, Surinam Grass ([1]; 62 g ai/ha, scale 0 to 100): 60
Plant response rating, Surinam Grass ([1]; 125 g ai/ha, scale of 0 to 100): 25
Plant response rating, Oat, Wild ([2]; 16 g ai/ha, scale 0 to 100): 0
Plant response rating, Oat, Wild ([2]; 31 g ai/ha, scale 0 to 100): 0
Plant response rating, Oat, Wild ([2]; 62 g ai/ha, scale 0 to 100): 5
Plant response rating, Oat, Wild ([2]; 125 g ai/ha, scale of 0 to 100): 5
Plant response rating, Galium ([3]; 16 g ai/ha, scale 0 to 100): 0
Plant response rating, Galium ([3]; 31 g ai/ha, scale 0 to 100): 0
Plant response rating, Galium ([3]; 62 g ai/ha, scale of 0 to 100): 10
Plant response rating, Galium ([3]; 125 g ai/ha, scale of 0 to 100): 15

O=C(CCCC(F)(F)F)c1c(Br)cccc1Oc1ncc(Cl)cn1 [Compound 77]
Plant response rating, Pigweed ([4]; 125 g ai/ha, scale of 0 to 100): 100
Plant response rating, Pigweed ([4]; 16 g ai/ha, scale 0 to 100): 85
Plant response rating, Pigweed ([4]; 31 g ai/ha, scale 0 to 100): 100
Plant response rating, Pigweed ([4]; 62 g ai/ha, scale 0 to 100): 100
Plant response rating, Wheat ([5]; 16 g ai/ha, scale of 0 to 100): 0
Plant response rating, Wheat ([5]; 31 g ai/ha, scale 0 to 100): 0
Wheat plant response rating ([5]; 62 g ai/ha): 10
Wheat plant response rating ([5]; 125 g ai/ha): 30
Plant response rating, Soybean (soybean (Glycine max); 16 g ai/ha, scale of 0 to 100): 25
Plant response rating, Soybean (soybean (Glycine max); 31 g ai/ha, scale 0 to 100): 50
Soybean plant response rating (soybean (Glycine max); 62 g ai/ha): 70
Soybean plant response rating (soybean (Glycine max); 125 g ai/ha): 65
Plant response rating, Waterhemp ([6]; 16 g ai/ha, scale of 0 to 100): 95
Plant response rating, Waterhemp ([6]; 31 g ai/ha, scale 0 to 100): 98
Waterhemp plant response rating ([6]; 62 g ai/ha): 100
Waterhemp plant response rating ([6]; 125 g ai/ha): 100
Plant response rating, Corn (corn (Zea mays); 16 g ai/ha, scale of 0 to 100): 15
Plant response rating, Corn (corn (Zea mays); 31 g ai/ha, scale 0 to 100): 15
Corn plant response rating (corn (Zea mays); 62 g ai/ha): 20
Corn plant response rating (corn (Zea mays); 125 g ai/ha): 25
Plant response rating, Foxtail, Giant ([7]; 16 g ai/ha, scale of 0 to 100): 10
Plant response rating, Foxtail, Giant ([7]; 31 g ai/ha, scale 0 to 100): 20
Foxtail, Giant plant response rating ([7]; 62 g ai/ha): 25
Foxtail, Giant plant response rating ([7]; 125 g ai/ha): 70
Plant response rating, Crabgrass, Large ([8]; 16 g ai/ha, scale of 0 to 100): 10
Plant response rating, Crabgrass, Large ([8]; 31 g ai/ha, scale 0 to 100): 25
Crabgrass, Large plant response rating ([8]; 62 g ai/ha): 30
Crabgrass, Large plant response rating ([8]; 125 g ai/ha): 30
Plant response rating, Blackgrass ([9]; 16 g ai/ha): 5
Plant response rating, Blackgrass ([9]; 31 g ai/ha): 20
Blackgrass plant response rating ([9]; 62 g ai/ha): 20
Blackgrass plant response rating ([9]; 125 g ai/ha): 25
Plant response rating, Galium ([10]; 16 g ai/ha, scale of 0 to 100): 75
Plant response rating, Galium ([10]; 31 g ai/ha, scale 0 to 100): 98
Galium plant response rating ([10]; 62 g ai/ha): 95
Galium plant response rating ([10]; 125 g ai/ha): 98
Plant response rating, Oilseed Rape ([11]; 16 g ai/ha, scale of 0 to 100): 10
Plant response rating, Oilseed Rape ([11]; 31 g ai/ha, scale 0 to 100): 70
Oilseed Rape plant response rating ([11]; 62 g ai/ha): 70
Oilseed Rape plant response rating ([11]; 125 g ai/ha): 85
Plant response rating, Velvetleaf ([12]; 16 g ai/ha, scale of 0 to 100): 35
Plant response rating, Velvetleaf ([12]; 31 g ai/ha, scale 0 to 100): 50
Velvetleaf plant response rating ([12]; 62 g ai/ha): 55
Velvetleaf plant response rating ([12]; 125 g ai/ha): 65
Plant response rating, Oat, Wild ([13]; 16 g ai/ha, scale of 0 to 100): 0
Plant response rating, Oat, Wild ([13]; 31 g ai/ha, scale 0 to 100): 5
Oat, Wild plant response rating ([13]; 62 g ai/ha): 10
Oat, Wild plant response rating ([13]; 125 g ai/ha): 15
Plant response rating, Lambsquarters ([14]; 16 g ai/ha, scale of 0 to 100): 55
Plant response rating, Lambsquarters ([14]; 31 g ai/ha, scale 0 to 100): 75
Lambsquarters plant response rating ([14]; 62 g ai/ha): 70
Lambsquarters plant response rating ([14]; 125 g ai/ha): 90
Plant response rating, Ryegrass, Italian ([15]; 16 g ai/ha, scale of 0 to 100): 0
Plant response rating, Ryegrass, Italian ([15]; 31 g ai/ha, scale 0 to 100): 5
Ryegrass, Italian plant response rating ([15]; 62 g ai/ha): 10
Ryegrass, Italian plant response rating ([15]; 125 g ai/ha): 10
Plant response rating, Ragweed ([16]; 16 g ai/ha, scale of 0 to 100): 40
Plant response rating, Ragweed ([16]; 31 g ai/ha, scale 0 to 100): 40
Ragweed plant response rating ([16]; 62 g ai/ha): 35
Ragweed plant response rating ([16]; 125 g ai/ha): 70
Plant response rating, Barnyardgrass ([17]; 16 g ai/ha): 15
Plant response rating, Barnyardgrass ([17]; 31 g ai/ha): 25
Barnyardgrass plant response rating ([17]; 62 g ai/ha): 25
Barnyardgrass plant response rating ([17]; 125 g ai/ha): 30
Plant response rating, Nutsedge, Yellow ([18]; 16 g ai/ha, scale of 0 to 100): 5
Plant response rating, Nutsedge, Yellow ([18]; 31 g ai/ha, scale 0 to 100): 10
Nutsedge, Yellow plant response rating ([18]; 62 g ai/ha): 15
Nutsedge, Yellow plant response rating ([18]; 125 g ai/ha): 15
Plant response rating, Galium ([3]; 16 g ai/ha, scale 0 to 100): 0
Plant response rating, Galium ([3]; 31 g ai/ha, scale 0 to 100): 0
Plant response rating, Galium ([3]; 62 g ai/ha, scale of 0 to 100): 98
Plant response rating, Galium ([3]; 125 g ai/ha, scale of 0 to 100): 98
